The values below come from PubChem BioAssay AID248 (DTP/NCI, 2004).

This experiment deals with L1210 leukemia ip in BDF1 mice, survival T/C. Put plainly: NCI In Vivo Anticancer Drug Screen. Data for tumor model L1210 Leukemia (intraperitoneal) in B6D2F1 (BDF1) mice. To be noted: endpoint: mean survival time, higher = longer survival. The method, boiled down: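 In this screen, tumor-bearing mice given compound are compared to those given vehicle, and their survival values are reported as a treated-to-control quotient.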

Where [1] appears, read: dose: 100.0 mg/kg/injection, schedule: Q01DX001 (ip), vehicle: saline.
[2] abbreviates: dose: 100.0 mg/kg/injection, schedule: Q04DX003 (ip), vehicle: saline with Tween-80.
The mark [3] stands for this setting: dose: 200.0 mg/kg/injection, schedule: Q01DX001 (ip), vehicle: saline.
Where [4] appears, read: dose: 200.0 mg/kg/injection, schedule: Q04DX003 (ip), vehicle: saline with Tween-80.
The mark [5] stands for this setting: dose: 400.0 mg/kg/injection, schedule: Q01DX001 (ip), vehicle: saline.
Setting [6] is: dose: 400.0 mg/kg/injection, schedule: Q04DX003 (ip), vehicle: saline with Tween-80.
The mark [7] stands for this setting: dose: 100.0 mg/kg/injection, schedule: Q01DX001 (ip), vehicle: other.
The mark [8] stands for this setting: dose: 200.0 mg/kg/injection, schedule: Q01DX001 (ip), vehicle: other.
Setting [9] is: dose: 100.0 mg/kg/injection, schedule: Q04DX003 (ip), vehicle: saline.
The mark [10] stands for this setting: dose: 200.0 mg/kg/injection, schedule: Q04DX003 (ip), vehicle: saline.
Where [11] appears, read: dose: 100.0 mg/kg/injection, schedule: Q04DX002 (ip), vehicle: saline.
[12] abbreviates: dose: 200.0 mg/kg/injection, schedule: Q04DX002 (ip), vehicle: saline.
[13] abbreviates: dose: 100.0 mg/kg/injection, schedule: Q01DX001 (ip), vehicle: Klucel (hydroxypropylcellulose) (HPC).
Setting [14] is: dose: 200.0 mg/kg/injection, schedule: Q01DX001 (ip), vehicle: Klucel (hydroxypropylcellulose) (HPC).
The mark [15] stands for this setting: dose: 100.0 mg/kg/injection, schedule: Q04DX003 (ip), vehicle: Klucel (hydroxypropylcellulose) (HPC).
The mark [16] stands for this setting: dose: 200.0 mg/kg/injection, schedule: Q04DX003 (ip), vehicle: Klucel (hydroxypropylcellulose) (HPC).
The mark [17] stands for this setting: dose: 400.0 mg/kg/injection, schedule: Q04DX003 (ip), vehicle: Klucel (hydroxypropylcellulose) (HPC).

Several values for one entry are separate records, joined by “and”; a condition that tells them apart may be missing. Identical values can stand only once. Toxic doses and inconclusive results are not listed.

As to `Cc1nc(N)sc1S(=O)(=O)F`, the T/C is 96 % of control under setting [1]; 89 % of control under setting [2]; 97 % of control under setting [3]; 97 % of control under setting [4]; 102 % of control under setting [5]; 97 % of control under setting [6].
`CCCCOCN1CCCCC1`: the T/C is 95 % of control (dose: 31.0 mg/kg/injection, schedule: Q01DX Z (ip), vehicle: carboxymethylcellulose (CMC)); 101 % of control (dose: 62.5 mg/kg/injection, schedule: Q01DX Z (ip), vehicle: carboxymethylcellulose (CMC)); 111 % of control under setting [2]; 105 % of control (dose: 125.0 mg/kg/injection, schedule: Q01DX Z (ip), vehicle: carboxymethylcellulose (CMC)); 102 % of control under setting [4].
As for `CCOC(=O)C1C(O)=C(C(=O)Nc2ccccc2)C(=O)C(C(=O)O)C1C1CC=CCC1` (stereo not drawn), the T/C by setting is: under setting [7], 97 % of control; under setting [2], 94 % of control; under setting [8], 100 % of control; under setting [4], 103 % of control; under setting [6], 100 % of control.
On to `OCCOc1ccc(-c2ccccc2)cc1`, for which the T/C by setting is: (dose: 75.0 mg/kg/injection, schedule: Q04DX002 (ip), vehicle: Klucel (hydroxypropylcellulose) (HPC)) 101 % of control; (dose: 150.0 mg/kg/injection, schedule: Q04DX002 (ip), vehicle: Klucel (hydroxypropylcellulose) (HPC)) 105 % of control; (dose: 300.0 mg/kg/injection, schedule: Q04DX002 (ip), vehicle: Klucel (hydroxypropylcellulose) (HPC)) 108 % of control.
As for `CSc1ncc(CO)c(Nc2ccc(F)cc2)n1`, the T/C by setting is: under setting [9], 93 % of control; under setting [10], 100 % of control; (dose: 400.0 mg/kg/injection, schedule: Q04DX003 (ip), vehicle: saline) 98 % of control.
For the compound `CN(N=O)C(=O)NC1CCOCC1`, the T/C (dose: 10.0 mg/kg/injection, schedule: Q01DX001 (ip), vehicle: saline) is 102 % of control; the T/C (dose: 20.0 mg/kg/injection, schedule: Q01DX001 (ip), vehicle: saline) was 103 % of control; the T/C (dose: 40.0 mg/kg/injection, schedule: Q01DX001 (ip), vehicle: saline) is 104 % of control; the T/C (dose: 60.0 mg/kg/injection, schedule: Q01DX001 (ip), vehicle: saline) is 109 % of control; the T/C (dose: 90.0 mg/kg/injection, schedule: Q01DX001 (ip), vehicle: saline) is 102 % of control; the T/C (dose: 187.0 mg/kg/injection, schedule: Q01DX001 (ip), vehicle: saline) is 119 % of control. Besides, the T/C by setting is: (dose: 250.0 mg/kg/injection, schedule: Q01DX001 (ip), vehicle: saline) 112 % of control; (dose: 500.0 mg/kg/injection, schedule: Q01DX001 (ip), vehicle: saline) 159 % of control; (dose: 750.0 mg/kg/injection, schedule: Q01DX001 (ip), vehicle: saline) 187 % of control.
`CCCCCCCC(=O)N(CC)CC`: the T/C reads like this: (dose: 25.0 mg/kg/injection, schedule: Q04DX002 (ip), vehicle: saline) 103 % of control; (dose: 50.0 mg/kg/injection, schedule: Q01DX009 (ip), vehicle: saline) 97 % of control; (dose: 50.0 mg/kg/injection, schedule: Q04DX002 (ip), vehicle: saline) 103 % of control; (dose: 100.0 mg/kg/injection, schedule: Q01DX009 (ip), vehicle: saline) 101 % of control; under setting [11], 100 % of control; under setting [12], 100 % of control and 102 % of control. The T/C (dose: 400.0 mg/kg/injection, schedule: Q04DX002 (ip), vehicle: saline) was 102 % of control.
With `COc1ccc(Cl)cc1NC(=S)Nc1ccccc1`, the T/C is, setting by setting: (dose: 100.0 mg/kg/injection, schedule: Q04DX002 (ip), vehicle: Klucel (hydroxypropylcellulose) (HPC)) 90 % of control; (dose: 200.0 mg/kg/injection, schedule: Q04DX002 (ip), vehicle: Klucel (hydroxypropylcellulose) (HPC)) 101 % of control; (dose: 400.0 mg/kg/injection, schedule: Q04DX002 (ip), vehicle: Klucel (hydroxypropylcellulose) (HPC)) 101 % of control.
As for `O=C(COc1ccc(Cl)cc1C(=O)O)Nc1cccc(NC(=O)Nc2cc(S(=O)(=O)F)ccc2Cl)c1`, the T/C is, setting by setting: under setting [13], 94 % of control; under setting [14], 88 % of control; (dose: 400.0 mg/kg/injection, schedule: Q01DX001 (ip), vehicle: Klucel (hydroxypropylcellulose) (HPC)) 91 % of control.
`CCN(CC)C(=O)O/N=C(/C)c1ccccc1`: the T/C by setting is: under setting [7], 96 % of control; under setting [8], 91 % of control.
Turning to `Oc1ccccc1CNc1ccccc1`, the T/C is, setting by setting: under setting [15], 96 % of control; under setting [16], 94 % of control; under setting [17], 96 % of control.
With `CC(C)(C)C1CCC2(CC1)CC(=O)N(N1CCCCCC1)C(=O)C2`, the T/C (dose: 50.0 mg/kg/injection, schedule: Q01DX001 (ip), vehicle: carboxymethylcellulose (CMC)) is 95 % of control; the T/C (dose: 100.0 mg/kg/injection, schedule: Q01DX001 (ip), vehicle: carboxymethylcellulose (CMC)) is 101 % of control; the T/C (dose: 200.0 mg/kg/injection, schedule: Q01DX001 (ip), vehicle: carboxymethylcellulose (CMC)) was 95 % of control; the T/C (dose: 400.0 mg/kg/injection, schedule: Q01DX001 (ip), vehicle: carboxymethylcellulose (CMC)) is 104 % of control.
As to `Cc1cc(=O)oc2c(CN3CCCCC3)c(O)ccc12`, the T/C runs as follows: (dose: 5.0 mg/kg/injection, schedule: Q01DX001 (ip), vehicle: carboxymethylcellulose (CMC)) 93 % of control; (dose: 10.0 mg/kg/injection, schedule: Q01DX001 (ip), vehicle: carboxymethylcellulose (CMC)) 90 % of control; (dose: 20.0 mg/kg/injection, schedule: Q01DX001 (ip), vehicle: carboxymethylcellulose (CMC)) 104 % of control.
With `CC(C1=C(CCN(C)C)Cc2ccccc21)c1ccccn1` (stereo not drawn), the T/C under setting [1] is 107 % of control.
Turning to `CC(=O)c1ccc(C)c2ccccc12`, the T/C runs as follows: under setting [1], 101 % of control; under setting [3], 102 % of control; under setting [5], 95 % of control.
Turning to `CC(=O)Nc1cc(Cl)c2[nH]cnc2n1`, the T/C is 100 % of control (dose: 88.0 mg/kg/injection, schedule: Q01DX001 (ip), vehicle: Klucel (hydroxypropylcellulose) (HPC)); 101 % of control under setting [13]; 110 % of control (dose: 100.0 mg/kg/injection, schedule: Q04DX003 (ip), vehicle: water); 90 % of control (dose: 133.0 mg/kg/injection, schedule: Q01DX001 (ip), vehicle: Klucel (hydroxypropylcellulose) (HPC)); 95 % of control under setting [14]; 115 % of control (dose: 200.0 mg/kg/injection, schedule: Q04DX003 (ip), vehicle: water). The T/C (dose: 300.0 mg/kg/injection, schedule: Q01DX001 (ip), vehicle: Klucel (hydroxypropylcellulose) (HPC)) is 97 % of control.
Regarding `CNC(=S)N/N=C/c1ccc2c(c1)CCC2`, the T/C is, setting by setting: under setting [15], 100 % of control; under setting [16], 100 % of control; under setting [17], 91 % of control.
For the compound `CCN(CC)CCN(C)C(=O)C(c1ccccc1)c1ccccc1`, the T/C is, setting by setting: under setting [9], 98 % of control; under setting [10], 93 % of control.
For the compound `N#CCn1c(C(F)(F)F)nc2nc(Cl)c(Cl)nc21`, the T/C is, setting by setting: (dose: 25.0 mg/kg/injection, schedule: Q01DX009 (ip), vehicle: saline with Tween-80) 98 % of control; (dose: 50.0 mg/kg/injection, schedule: Q01DX009 (ip), vehicle: saline with Tween-80) 98 % of control; (dose: 100.0 mg/kg/injection, schedule: Q01DX009 (ip), vehicle: saline with Tween-80) 96 % of control; under setting [2], 98 % of control.
On to `O=C(O)c1c(-c2ccccc2)oc(-c2ccccc2)c1C(=O)O`, for which the T/C reads like this: under setting [11], 105 % of control; under setting [12], 94 % of control.
